# Assay results: ChEMBL document CHEMBL3259757, “B-ring modified aurones as promising allosteric inhibitors of hepatitis C virus RNA-dependent RNA polymerase” (Eur J Med Chem, 2014)
# How the values were obtained:
# [1] = Inhibition of HCV J4 genotype 1b NS5Bdelta21 polymerase using homopolymeric RNA by SYBR Green assay; parameters: species or system Hepatitis C virus subtype 1b
# [2] = test system: Hepatitis C virus subtype 1b; assay: Inhibition of HCV J4 genotype 1b NS5Bdelta21 polymerase using homopolymeric RNA at 20 uM by SYBR Green assay
Structure (SMILES),IC50 [1] [µM],inhibition [2] [%]
O=C1/C(=C/c2ccc(N3CCCCC3)cc2)Oc2cc(O)cc(O)c21,5.5,93
CCCCn1cc(/C=C2\Oc3cc(O)cc(O)c3C2=O)c2cc(OC)ccc21,,93.8
O=C1/C(=C/c2cn(CC3CCCCC3)c3ccccc23)Oc2cc(O)cc(O)c21,3.3,93
Cn1c(/C=C2\Oc3cc(O)cc(O)c3C2=O)cc2ccccc21,3.1,97.8
Cn1cccc1/C=C1\Oc2cc(O)cc(O)c2C1=O,> 16,55
O=C1/C(=C/c2cccc3ccccc23)Oc2cc(O)cc(O)c21,,45
O=C1/C(=C/c2ccc3[nH]cnc3c2)Oc2cc(O)cc(O)c21,10,81
O=C1/C(=C/c2ccc(-c3ccccc3)cc2)Oc2cc(O)cc(O)c21,4,93
O=C1/C(=C/c2ccc(-c3cccs3)cc2)Oc2cc(O)cc(O)c21,4,97
O=C1/C(=C/c2ccc3ccccc3n2)Oc2cc(O)cc(O)c21,,42
O=C1/C(=C/c2cn(Cc3cccc(Br)c3)c3ccccc23)Oc2cc(O)cc(O)c21,2.4,96
O=C1/C(=C/c2cn(Cc3ccccc3)c3ccccc23)Oc2cc(O)cc(O)c21,2.6,96.2
O=C1/C(=C/c2cnc[nH]2)Oc2cc(O)cc(O)c21,> 16,39
CC(C)=CCn1cc(/C=C2\Oc3cc(O)cc(O)c3C2=O)c2ccccc21,3,94.7
CCCCn1cc(/C=C2\Oc3cc(O)cc(O)c3C2=O)c2cccc(OC)c21,,93.1
CCCCn1cc(/C=C2\Oc3cc(O)cc(O)c3C2=O)c2cc(C)ccc21,,96
O=C1/C(=C/c2cn(CCCc3ccccc3)c3ccccc23)Oc2cc(O)cc(O)c21,2.7,93
CN(C)c1ccc(/C=C2\Oc3cc(O)cc(O)c3C2=O)cc1,5,90
CCCCn1cc(/C=C2\Oc3cc(O)cc(O)c3C2=O)c2cccc(O)c21,2.3,98.9

Structure (SMILES),IC50 [1] [µM],inhibition [2] [%]
CCCCOc1ccc(/C=C2\Oc3cc(O)cc(O)c3C2=O)c(OCCCC)c1,4,90
CCCCn1cc(/C=C2\Oc3cc(O)cc(O)c3C2=O)c2cccc(C)c21,,92.5
CCCCn1cc(/C=C2\Oc3cc(O)cc(O)c3C2=O)c2cc(O)ccc21,,53.5
CC(C)Cn1cc(/C=C2\Oc3cc(O)cc(O)c3C2=O)c2ccccc21,8,80.7
O=C1/C(=C/c2cn(Cc3cccc(O)c3)c3ccccc23)Oc2cc(O)cc(O)c21,2.4,99.3
CCCCn1c(C)c(/C=C2\Oc3cc(O)cc(O)c3C2=O)c2ccccc21,,91.6
CCCCOc1ccc(/C=C2\Oc3cc(O)cc(O)c3C2=O)cc1,,81
O=C1/C(=C/c2ccc3ccccc3c2)Oc2cc(O)cc(O)c21,3.4,95
Cc1cccc(Cn2cc(/C=C3\Oc4cc(O)cc(O)c4C3=O)c3ccccc32)c1,2.6,95.6
O=C(O)CCCn1cc(/C=C2\Oc3cc(O)cc(O)c3C2=O)c2ccccc21,,70
O=C1/C(=C/c2ccco2)Oc2cc(O)cc(O)c21,> 16,27
CCCCn1ccc2cc(/C=C3\Oc4cc(O)cc(O)c4C3=O)ccc21,,94.3
CCCCn1c(/C=C2\Oc3cc(O)cc(O)c3C2=O)cc2ccccc21,3,98.4
O=C1/C(=C/c2ccc(CO)o2)Oc2cc(O)cc(O)c21,> 16,33
COc1cccc(Cn2cc(/C=C3\Oc4cc(O)cc(O)c4C3=O)c3ccccc32)c1,2.7,95.4
O=C1/C(=C/c2cn(CCc3ccccc3)c3ccccc23)Oc2cc(O)cc(O)c21,3.2,93.9
Cn1cc(/C=C2\Oc3cc(O)cc(O)c3C2=O)c2ccccc21,6,90
O=C1/C(=C/c2ccc(C(F)(F)F)cc2)Oc2cc(O)cc(O)c21,5.4,96
